Read-outs that look alike come from different tables or passages of the source.

Experiment [1] has as its system A. galli (intestinal roundworm of chicken) larval stage 3; O. dentatum (nodular worm of swine) larval stages 3 and 4. The experiment is described as follows: Activity against Ascaridia galli and Oesophagostomum dentatum larvae in vitro (minimum effective concentration). The experiment is classed as cell-based.
The subject of the next experiment is Haemonchus contortus. The experiment is described as follows: Efficacy against Haemonchus contortus in jirds. The format is in vivo, jirds (Meriones unguiculatus). Conditions: 72 h, read-out: % Reduction in H. The method, then:
Anthelmintic effects of compounds of this invention were tested in vivo using Haemonchus contuortus in jirds (Meriones unguiculatus). The jirds were orally infected with approximately 750-3,000 third-stage larvae of Haemonchus contortus. Ten days after infection, the jirds in the treatment groups were treated once orally or subcutaneously at a dose of 2, 10, and/or 50 mg per kg bodyweight. Three days after treatment, the jirds were necropsied, and the larvae burden in the stomach is determined. The efficacy is defined as the reduction of the mean larvae count in the jirds of the treatment groups in comparison to the infected jirds in the untreated negative control group.

The mark [2] stands for this setting: read-out: MEC (minimum effective concentration) against one or more of the tested nematodes, in vitro, one or more of A. galli L3, O. dentatum L3, L4, threshold 1 μM.
The mark [3] stands for this setting: read-out: MEC (minimum effective concentration) against one or more of the tested nematodes, in vitro, one or more of A. galli L3, O. dentatum L3, L4, threshold 7 μM.
[4] abbreviates: read-out: MEC (minimum effective concentration) against two or more of the tested nematodes, in vitro, two or more of A. galli L3, O. dentatum L3, L4, threshold 1 μM.
[5] abbreviates: jirds, 50 mg/kg, oral, single treatment, larvae burden in stomach 3 days after treatment.
Setting [6] is: sc, jirds, 50 mg/kg, subcutaneous, single treatment, larvae burden in stomach 3 days after treatment.
The mark [7] stands for this setting: in vitro, one or more of A. galli L3, O. dentatum L3, L4, threshold 1 μM, read-out: MEC (minimum effective concentration) against one or more of the tested nematodes.
The mark [8] stands for this setting: in vitro, one or more of A. galli L3, O. dentatum L3, L4, threshold 7 μM, read-out: MEC (minimum effective concentration) against one or more of the tested nematodes.

As to `CSc1ccc(NC2CCN(C(=O)CCCN3CCN(c4ccc(C(F)(F)F)cc4)CC3)CC2)cc1C(F)(F)F` [Example 5, 1-[4-(4-methylsulfanyl-3-trifluoromethyl-phenylamino)-piperidin-1-yl]-4-[4-(4-trifluoromethyl-phenyl)-piperazin-1-yl]-butan-1-one], the minimal effective concentration in experiment [1] (setting [2]) is less than 1 µM; in experiment [1] (setting [3]) it was less than 7 µM; in experiment [1] (setting [4]), less than 1 µM. Besides, the inhibition in vivo at 50 mg/kg with Haemonchus contortus (po) was 87%; with Haemonchus contortus (sc), 99%. As to `N#Cc1cccc(NC2CCN(C(=O)CCCN3CCN(c4ccc(C(F)(F)F)cc4)CC3)CC2)c1` [Example 7, 3-(1-{4-[4-(4-trifluoromethyl-phenyl)-piperazin-1-yl]-butyryl}-piperidin-4-ylamino)-benzonitrile], the figures for the minimal effective concentration in experiment [1] (setting [2]), in experiment [1] (setting [3]) and in experiment [1] (setting [4]) were less than 1 µM, less than 7 µM and less than 1 µM, respectively. Besides, the values for the inhibition in vivo at 50 mg/kg in the experiment with Haemonchus contortus (po) and in the experiment on Haemonchus contortus (sc) were 99% and 98%, respectively. As to `O=C(COC1CCN(c2ccc(C(F)(F)F)cc2)CC1)N1CCC(Nc2ccc([N+](=O)[O-])c(C(F)(F)F)c2)CC1` [Example 12, 1-[4-(4-nitro-3-trifluoromethyl-phenylamino)-piperidin-1-yl]-2-[1-(4-trifluoromethyl-phenyl)-piperidin-4-yloxy]-ethanone], the minimal effective concentration in experiment [1] (setting [2]) was less than 1 µM; in experiment [1] (setting [3]), less than 7 µM; in experiment [1] (setting [4]), less than 1 µM. Also, the inhibition in vivo at 50 mg/kg in the experiment with Haemonchus contortus (po) worked out at 96%; in the experiment on Haemonchus contortus (sc), 100%. On to `O=C(CCN1CCN(c2ccc(OCc3ccccc3)cc2)CC1)N1CCC(Oc2ccc([N+](=O)[O-])c(C(F)(F)F)c2)CC1` [Example 58, 3-[4-(4-benzyloxy-phenyl)-piperazin-1-yl]-1-[4-(4-nitro-3-trifluoromethyl-phenoxy)-piperidin-1-yl]-propan-1-one], for which the inhibition in vivo at 50 mg/kg in the experiment with Haemonchus contortus (po) was determined as 0%; with Haemonchus contortus (sc), 59%. In the case of `O=C(CCCN1CCN(c2ccc(C(F)(F)F)cc2)CC1)N1CCC(Nc2ccc([N+](=O)[O-])c(C(F)(F)F)c2)CC1` [Example 89, 1-[4-(4-nitro-3-trifluoromethyl-phenylamino)-piperidin-1-yl]-4-[4-(4-trifluoromethyl-phenyl)-piperazin-1-yl]-butan-1-one], the inhibition in vivo at 10 mg/kg worked out at 99% in the experiment on Haemonchus contortus (po) and 98% in the experiment with Haemonchus contortus (sc). The matching figures for `CC(C)(C)c1ccc(N2CCN(CCCC(=O)N3CCC(Nc4ccc([N+](=O)[O-])c(C(F)(F)F)c4)CC3)CC2)cc1` [Example 90, 4-[4-(4-tert-butyl-phenyl)-piperazin-1-yl]-1-[4-(4-nitro-3-trifluoromethyl-phenylamino)-piperidin-1-yl]-butan-1-one]: 46% and 42%.

`CC(CN1CCN(c2ccc(C(F)(F)F)cc2)CC1)C(=O)N1CCC(Nc2ccc(C#N)c(C(F)(F)F)c2)CC1` (centres unmarked) [Example 92, 4-(1-{2-methyl-3-[4-(4-trifluoromethyl-phenyl)-piperazin-1-yl]-propionyl}-piperidin-4-ylamino)-2-trifluoromethyl-benzonitrile]: the inhibition in vivo at 50 mg/kg in the experiment with Haemonchus contortus (setting [5]) is 100%; with Haemonchus contortus (setting [6]), 91%. For the molecule `N#Cc1ccc(NC2CCN(C(=O)CCCN3CCN(c4ccc(C(F)(F)F)cn4)CC3)CC2)cc1C(F)(F)F` [Example 157, 2-trifluoromethyl-4-(1-{4-[4-(5-trifluoromethyl-pyridin-2-yl)-piperazin-1-yl]-butyryl}-piperidin-4-ylamino)-benzonitrile], the inhibition in vivo at 10 mg/kg was found to be 96% in the experiment with Haemonchus contortus (jirds, 10 mg/kg, oral, single treatment, larvae burden in stomach 3 days after treatment) and 93% in the experiment on Haemonchus contortus (sc, jirds, 10 mg/kg, subcutaneous, single treatment, larvae burden in stomach 3 days after treatment). Take `CCOc1cc(NC2CCN(C(=O)CCN3CCC(c4ccc(Cl)cc4)CC3)CC2)ccc1[N+](=O)[O-]` [Example 414]: the inhibition in vivo at 50 mg/kg with Haemonchus contortus (setting [5]) was 0%; in the experiment on Haemonchus contortus (setting [6]), 98%. For `CC(C)(C)c1ccc(N2CCC(OCC(=O)N3CCC(Nc4ccc([N+](=O)[O-])c(C(F)(F)F)c4)CC3)CC2)cc1` [Example 416], the inhibition in vivo at 50 mg/kg with Haemonchus contortus (setting [5]) is 88%; with Haemonchus contortus (setting [6]), 98%. The matching figures for `CCCc1ccc(C2CCN(CCC(=O)N3CCC(Oc4ccc([N+](=O)[O-])c(OCC(C)C)c4)CC3)CC2)cc1` [Example 532]: 90% and 99%. The matching figures for `CC(C)COc1cc(OC2CCN(C(=O)CCN3CCC(c4ccc(C(C)(C)C)cc4)CC3)CC2)ccc1[N+](=O)[O-]` [Example 533]: 83% and 74%.

Regarding `O=C(NCC1CCN(c2ccc(C(F)(F)F)cc2)CC1)N1CCC(Nc2ccc([N+](=O)[O-])c(C(F)(F)F)c2)CC1` [Example 539], the figures for the inhibition in vivo at 50 mg/kg with Haemonchus contortus (setting [5]) and in the experiment with Haemonchus contortus (setting [6]) were 82% and 73%, respectively. As to `CN(CC1CCN(c2ccccc2)CC1)C(=O)N1CCC(Nc2ccc([N+](=O)[O-])c(C(F)(F)F)c2)CC1` [Example 565], the figures for the inhibition in vivo at 50 mg/kg with Haemonchus contortus (setting [5]) and with Haemonchus contortus (setting [6]) were 70% and 90%, respectively. The like results for `Cc1ccc(N2CCC(CN(C)C(=O)N3CCC(Nc4ccc([N+](=O)[O-])c(C(F)(F)F)c4)CC3)CC2)cc1` [Example 566] were, in that order, 83% and 93%. `CC(CN1CCN(c2ccc(Cl)cc2)CC1)C(=O)N1CCC(Nc2ccc(C#N)c(C(F)(F)F)c2)CC1` (centres unmarked) [Example 581]: the values for the inhibition in vivo at 50 mg/kg with Haemonchus contortus (po) and in the experiment with Haemonchus contortus (sc) were 68% and 10%, respectively.

As for `O=C(CCN1CCN(c2ccc(Cl)cn2)CC1)N1CC[C@@H](Nc2ccc([N+](=O)[O-])c(C(F)(F)F)c2)C1` [Example 795], in experiment [1] (setting [7]), the minimal effective concentration was less than 1 µM.

Regarding `O=C(CCN1CCCN(c2ccc(Cl)cc2)CC1)N1CC[C@@H](Nc2ccc([N+](=O)[O-])c(C(F)(F)F)c2)C1` [Example 799], in experiment [1] (setting [7]), the minimal effective concentration is less than 1 µM. `O=C(CCN1CCN(c2ccc(C(F)(F)F)cc2)CC1)N1CCCN(c2ccc([N+](=O)[O-])c(C(F)(F)F)c2)CC1` [Example 997]: the minimal effective concentration in experiment [1] (setting [8]) is less than 7 µM. Still for that read-out and setting: as for `CC(C)(C)c1ccc(N2CCN(CCC(=O)N3CCCN(c4ccc([N+](=O)[O-])c(C(F)(F)F)c4)CC3)CC2)cc1` [Example 998], the figure is less than 7 µM; as for `O=C(CCCN1CCN(c2ccc(C(F)(F)F)cc2)CC1)N1CCCN(c2ccc([N+](=O)[O-])c(C(F)(F)F)c2)CC1` [Example 1001], less than 7 µM.

With `CC(C)(C)c1ccc(N2CCN(CCCC(=O)N3CCCN(c4ccc([N+](=O)[O-])c(C(F)(F)F)c4)CC3)CC2)cc1` [Example 1003], in experiment [1] (setting [8]), the minimal effective concentration is less than 7 µM. For the molecule `N#Cc1ccc(N2CCCN(C(=O)CCCN3CCN(c4ccc(C(F)(F)F)cc4)CC3)CC2)cc1C(F)(F)F` [Example 1008], the minimal effective concentration in experiment [1] (setting [7]) was less than 1 µM. On the same count and under the same terms, the same measure for `CC(C)(C)c1ccc(N2CCN(CCCC(=O)N3CCCN(c4ccc(C#N)c(C(F)(F)F)c4)CC3)CC2)cc1` [Example 1010]: less than 1 µM; for `O=C(CCCN1CCN(c2ccc(C(F)(F)F)cc2)CC1)N1CCCN(c2ccc(C(F)(F)F)cn2)CC1` [Example 1014]: less than 1 µM. Consider `O=C(CCN1CCN(c2ccc(C(F)(F)F)cc2)CC1)N1CCCN(c2ccc(SC(F)(F)F)cc2)CC1` [Example 1017], for which the minimal effective concentration in experiment [1] (setting [7]) is less than 1 µM.

On to `CC(C)(C)c1ccc(N2CCN(CCC(=O)N3CCCN(c4ccc(SC(F)(F)F)cc4)CC3)CC2)cc1` [Example 1019], for which, in experiment [1] (setting [7]), the minimal effective concentration is less than 1 µM. With `COc1ccc(N2CCN(CCC(=O)N3CCCN(c4ccc(SC(F)(F)F)cc4)CC3)CC2)cc1` [Example 1020], in experiment [1] (setting [7]), the minimal effective concentration is less than 1 µM. As for `O=C(CCCN1CCN(c2ccc(C(F)(F)F)cc2)CC1)N1CCCN(c2ccc(SC(F)(F)F)cc2)CC1` [Example 1027], in experiment [1] (setting [7]), the minimal effective concentration was less than 1 µM. Same read-out and setting: as for `O=C(CCCN1CCN(c2ccc(Cl)cc2)CC1)N1CCCN(c2ccc(SC(F)(F)F)cc2)CC1` [Example 1028], the figure is less than 1 µM. For `O=C(CCCN1CCN(c2ccc(C(F)(F)F)cc2)CC1)N1CCN(c2ccc(SC(F)(F)F)cc2)CC1` [Example 1033], the minimal effective concentration in experiment [1] (in vitro, two or more of A. galli L3, O. dentatum L3, L4, threshold 1 μM, read-out: MEC (minimum effective concentration) against two or more of the tested nematodes) is less than 1 µM.

Source of the values: patent US9096524B2, “Anthelmintic agents and their use” (Intervet International B.V., priority 2009, dated 2015).
